What was measured:
THP1 cells = assay: IFN-β secretion in THP1 cell culture (5 h); type: cell-based, human; conditions: cGAMP at 30 uM set at 100%
Description: IFN-β secretion in THP1 cell culture (5 h)
The ability of compounds to stimulate the secretion of interferon-beta from THP1 cells was measured using a human IFN-0 AlphaLISA kit (Perkin Elmer, Cat. No. AL265F). The basic protocol is as follows:
A Labcyte Echo 550 acoustic dispenser was used to transfer 120 nL of compound dissolved in DMSO into the wells of an empty, sterile 384-well microplate, (Corning, Cat. No. 3712). THP1 cells (American Type Culture Collection, Cat. No. TIB202) previously frozen in Recovery Medium (Life Technologies, Cat. No. 12648-010) were thawed and immediately diluted 10-fold into 37° C. assay medium (RPMI 1640+L-Glutamine & phenol red, Life Technologies, Cat. No. 11875-085; 0.5% heat inactivated fetal bovine serum, Sigma Aldrich, Cat. No. F4135; 1 mM Sodium Pyruvate, Life Technologies, Cat. No. 11360-070; 1× non-essential amino acids; Life Technologies, Cat. No. 11140-050). The cell viability and count was ascertained using a Beckman Coulter V-Cell XR cell counter. The cell suspension was centrifuged at 200×g for 5 min at RT. Cells were resuspended to a density of 0.8×10^6/mL in 37° C. assay medium. Subsequent liquid transfers were performed using either a Matrix electronic multichannel pipette or an Agilent Bravo Automated Liquid Handling Platform. The assay was started by dispensing 40 μL of the previously prepared cell suspension into the wells of the plate containing compounds. After 5 h incubation at 37° C., 5% CO2 in a humidified atmosphere, the plate of cells and compounds was centrifuged at 200×g for 5 min at RT. From each well, 5 μL of supernatant was transferred into corresponding wells of a white 384-well plate (Perkin Elmer, Cat. No. 6005620). To these supernatant-containing wells was added 10 μL of 5× Anti-Analyte Acceptor beads (50 μg/mL of AlphaLISA HiBlock Buffer) and incubated for 30 min at RT while shaking on an orbital plate shaker. To each well was added 10 μL of 5× Biotinylated Antibody Anti-analyte (5 nM in AlphaLISA HiBlock Buffer) and incubated on an orbital plate shaker for 60 min at RT or overnight at 4° C. To each well was added 25 μL of 2×SA-Donor beads (80 μg/mL in AlphaLISA HiBlock Buffer) and incubated for 30-45 min at RT in the dark while shaking on an orbital plate shaker. The plate was then read on a Perkin Elmer Envision (λex=680 nm, […]). The percent effect of the AlphaLISA signal at each compound concentration was calculated based on 30 uM cGAMP positive controls and 0.3% DMSO negative controls. The plot of percent effect versus the log of compound concentration was fit with a 4-parameter concentration response equation to calculate EC50 values. The test compounds were tested at concentrations 30000, 10000, 3333, 1111, 370.4, 123.4, 41.2, 13.7, 4.6, and 1.5 nM with 0.3% residual DMSO. The control compound, cGAMP was tested at concentrations 100000, 33333, 11111, 3704, 1235, 412, 137, 46, and 15 nM with 0.3% residual DMSO.
Compounds of the disclosure were evaluated for IFN-β secretion in THP1 cell culture as described above. The following table tabulates the biological data for these compounds as percent activation relative to 2′3′-cGAMP at the 30 μM concentration.

full-length HAQ STING = biological target: T1, full-length HAQ STING (Homo sapiens, UniProt Q86WV6, G230A/H232R/R293Q/R71H); assay: 3H-cGAMP filtration binding assay (HAQ STING); conditions: competition with tritiated cGAMP ligand, HAQ STING membrane
T1 construct: Full-Length HAQ STING [STING(1-379)R71H, G230A, H232R,; made in house; host or cells: Trichoplusia ni (Hi-Five) insect cells infected with baculovirus; washed membranes were used
T1 sequence (Q86WV6 with tags, fused parts or gaps R71H/G230A/H232R/R293Q): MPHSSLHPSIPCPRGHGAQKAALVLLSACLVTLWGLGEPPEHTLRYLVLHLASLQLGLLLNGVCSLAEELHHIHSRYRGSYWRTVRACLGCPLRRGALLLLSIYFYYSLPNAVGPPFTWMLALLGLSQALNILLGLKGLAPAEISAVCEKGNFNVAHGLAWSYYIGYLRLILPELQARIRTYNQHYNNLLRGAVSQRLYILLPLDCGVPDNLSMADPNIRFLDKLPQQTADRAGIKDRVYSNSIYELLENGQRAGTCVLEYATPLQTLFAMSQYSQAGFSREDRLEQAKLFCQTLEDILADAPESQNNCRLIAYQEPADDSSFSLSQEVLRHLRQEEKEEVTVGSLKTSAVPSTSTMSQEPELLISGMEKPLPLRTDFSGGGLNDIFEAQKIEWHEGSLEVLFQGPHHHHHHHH
Text: The ability of compounds to bind STING is quantified by the ability to compete with tritiated cGAMP ligand for human STING receptor membrane using a radioactive filter-binding assay. The binding assay employs STING receptor obtained from Hi-Five cell membranes overexpressing full-length HAQ STING prepared in-house and tritiated cGAMP ligand also purified in-house.
The ability of compounds to bind STING is quantified by their ability to compete with tritiated cGAMP ligand for human STING receptor membrane using a radioactive filter-binding assay. The binding assay employs STING receptor obtained from Trichoplusia ni cell membranes (T.ni; Expression Systems, cat #94-002F, www.expressionsystems.com) overexpressing full-length HAQ STING and tritiated cGAMP ligand.
The basic HAQ STING filtration assay protocol is as follows:
Compound and membrane then preincubated for 60 min at RT to allow compound binding to equilibrate. Following equilibration, 8 nM of [^3H]c-GAMP ligand was prepared by diluting into assay buffer, and 50 uL of this working stock was then manually added to each well of the assay plate. […] The filter plates were then dried at 55° C. for 30 min using a pressurized oven before 30 uL of ULTIMA GOLD F scintillate was added to each well. Tritium levels for each reaction well were then measured using a PerkinElmer TopCount plate reader.
After normalization to controls, the percent activity for each compound concentration was calculated by measuring the amount of remaining radioactivity. The plot of percent activity versus the log of compound concentration was fit with a 4-parameter dose response equation to calculate EC50 values.

Row | SMILES | EC50 (full-length HAQ STING) [nM] | % Effect at 30 μM relative to 2′3′-cGAMP (THP1 cells) [%]
1 | Nc1nc2c(ncn2[C@@H]2O[C@@H]3COP(=O)(S)O[C@@H]4C[C@H](n5cnc6c(N)ncnc65)O[C@@H]4COP(=O)(S)O[C@@H]2[C@@H]3F)c(=O)[nH]1 (single isomer, unassigned) [Example 1] | – | 112
2 | Nc1nc2c(ncn2[C@@H]2O[C@@H]3COP(=O)(S)O[C@@H]4C[C@H](n5cnc6c(N)ncnc65)O[C@@H]4COP(=O)(S)O[C@@H]2[C@@H]3F)c(=O)[nH]1 (single isomer, unassigned) [Example 2] | – | 114
3 | Nc1nc2c(ncn2[C@@H]2O[C@@H]3COP(=O)(S)O[C@@H]4[C@H](F)[C@H](n5cnc6c(N)ncnc65)O[C@@H]4COP(=O)(S)O[C@@H]2C3)c(=O)[nH]1 (single isomer, unassigned) [Example 6] | 48.6 | 61
4 | Nc1nc2c(ncn2[C@@H]2O[C@@H]3COP(=O)(S)O[C@@H]4[C@@H](O)[C@H](n5cnc6c(N)ncnc65)O[C@@H]4COP(=O)(S)O[C@@H]2C3)c(=O)[nH]1 (stereo partly drawn) [Example 3, 2-amino-9-[(5S,7R,8R,12aR,14R,15R,15aR)-14-(6-amino-9H-purin-9-yl)-15-hydroxy-2,10-dioxido-2,10-disulfanyloctahydro-12H-5,8-methanofuro[3,2-l][1,3,6,9,11,2,10]penta-oxadiphosphacyclotetradecin-7-yl]-1,9-dihydro-6H-purin-6-one] | – | 63

Further lines, with some results ahead:

Row | EC50 (full-length HAQ STING) [nM] | SMILES | % Effect at 30 μM relative to 2′3′-cGAMP (THP1 cells) [%]
5 | 3690 | Nc1ncnc2c1ncn2[C@@H]1O[C@@H]2COP(=O)(S)O[C@@H]3[C@H](O)[C@@H](COP(=O)(S)O[C@@H]2[C@H]1O)O[C@H]3n1ccc(=O)n2ccnc12 (single isomer, unassigned) [Example 4] | 30
6 | 4410 | Nc1ncnc2c1ncn2[C@@H]1O[C@@H]2COP(=O)(S)O[C@@H]3[C@H](O)[C@@H](COP(=O)(S)O[C@@H]2[C@H]1O)O[C@H]3n1ccc(=O)n2ccnc12 (single isomer, unassigned) [Example 5] | 62
7 | 2.35 | Nc1nc2c(ncn2[C@@H]2O[C@@H]3COP(=O)(S)O[C@@H]4[C@H](F)[C@H](n5cnc6c(N)ncnc65)O[C@@H]4COP(=O)(S)O[C@@H]2C3)c(=O)[nH]1 (single isomer, unassigned) [Example 7] | 118
